Test results published in patent US10231956B2, “3-(1H-pyrrolo[3,2-C]pyridin-2-YL)-1 H-pyrazolo[4,3-B]pyridines and therapeutic uses thereof” (Samumed, LLC, priority 2015, dated 2019).
pEC50: −log10 of the molar value.

Experiments:
Format in all cases: cell-based
[1] = test system: Wnt activity (Sp5-Luc reporter, SW480 colon carcinoma cells); assay: Sp5-Luc reporter gene screening assay for Wnt activity in SW480 cells; details: Homo sapiens; for pEC50: luminescence, overnight incubation; for inhibition at 10 µM: given for EC50 >10 μM, read-out: percent inhibition at 10 μM
Procedure, shortened: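 Luminescence (BrightGlo) was normalised to DMSO-only wells and fitted with a four-parameter variable-slope model for EC50; beyond 10 μM, % inhibition at 10 μM is given. Stable Sp5-Luc SW480 reporter cells, 4,000/well in 1% FBS, were exposed overnight at 37 °C to compounds, top 10 μM, 1:3 dilutions, 0.1% DMSO.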

SW480 colon cancer cells = assay: Cell viability assay (CellTiter-Blue) in SW480 colon cancer cells; details: Homo sapiens; for pEC50: 96 h, four days, CellTiter-Blue
Procedure, shortened: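 SW480 cells (~2×10^3 per well) were exposed to compound for four days at 37 °C/5% CO2, using 8-point 1:3 dilutions from 10 μM to 0.0045 μM in duplicate. Viability was read by resazurin reduction (CellTiter-Blue, ~3 h, Ex 560/Em 590 nm). EC50 came from non-linear regression; above 10 μM, percent inhibition at 10 μM is given.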

[2] = test system: primary human mesenchymal stem cells (hMSCs); assay: Induction of chondrogenesis in primary human mesenchymal stem cells (nodule count); details: 144 h, 6 days; for Emax: TGF-β3 10 ng/mL as positive control, read-out: Max. Activity as % TGF-β3 activity; for EC50: concentration required to induce 50% levels of chondrogenesis vs TGF-β3, read-out: Conc (nM) of 50% TGF-β3 activity
Method: Representative compounds were screened using primary human mesenchymal stem cells (hMSCs) to determine their ability to induce chondrogenesis (process by which cartilage is developed).
Human Mesenchymal Stem Cell Culture: Primary human mesenchymal stem cells (hMSCs) were purchased from Lonza (Walkersville, Md.) and expanded in Mesenchymal Stem Cell Growth Media (Lonza). Cells between passage 3 and 6 were used for the experiments.
Compound Screening: Each compound was dissolved in DMSO as a 10 mM stock and used to prepare compound source plates. Serial dilution (1:3, 6-point dose-response curves from 2700 nM to 10 nM) and compound transfer was performed using the ECHO 550 (Labcyte, Sunnyvale, Calif.) into 96-well clear bottom assay plates (Greiner Bio-One) with appropriate DMSO backfill for a final DMSO concentration of 0.03%. hMSCs were plated at 20,000 cells/well in 250 μL/well Incomplete Chondrogenic Induction Medium (Lonza; DMEM, dexamethasone, ascorbate, insulin-transferrin-selenium [ITS supplement], gentamycin-amphotericin [GA-1000], sodium pyruvate, proline and L-glutamine). TGF-β3 (10 ng/mL) was used as a positive control for differentiation while negative control wells were treated with 75 nL DMSO for normalization and calculating EC50 values. Cells were incubated at 37° C. and 5% CO2 for 6 days. To image chondrogenic nodules, the cells were fixed using 4% formaldehyde (Electron Microscopy Sciences), and stained with 2 μg/mL Rhodamine B (Sigma-Aldrich) and 20 μM Nile Red (Sigma-Aldrich) [Johnson K., et. al, A Stem Cell-Based Approach to Cartilage Repair, Science, (2012), 336(6082), 717-721]. The nodules imaged (4 images per well at 4× magnification) by excitation at 531 nm and emission at 625 nm and quantified using the CellInsight CX5 (Thermo Scientific). Number of nodules in each well was normalized to the average of 3 DMSO treated wells on the same plate using Excel (Microsoft Inc.). The normalized averages (fold change over DMSO) of 3 replicate wells for each compound concentration were calculated. Due to solubility limitations of some of the compounds, curve fitting was incomplete leading to inaccurate EC50 determinations.
Using TGF-β3 as a positive control, the concentration of representative compounds required to induce 50% levels of chondrogenesis is reported. In addition, the maximum activity of each compound and the respective dose that each compound reached maximum chondrogenesis activity is reported.

Row | pEC50 [1] | pEC50 (SW480 colon cancer cells) | EC50 [2] | SMILES | Emax [2] | inhibition at 10 µM [1] | inhibition at 10 µM (SW480 colon cancer cells; given for EC50 >10 μM, 10 μM, read-out: percent inhibition at 10 μM)
1 | 6.16 | 6.22 | – | O=C(Nc1cncc(-c2ccc3[nH]nc(-c4cc5c(-c6ccccc6F)nccc5[nH]4)c3n2)c1)C1CC1 [Compound 76, N-(5-(3-(4-(2-Fluorophenyl)-1H-pyrrolo[3,2-c]pyridin-2-yl)-1H-pyrazolo [4,3-b]pyridin-5-yl)pyridin-3-yl)cyclopropanecarboxamide] | 25% | – | –
2 | 5.42 | 5.67 | 10 nM | Fc1ccccc1-c1nccc2[nH]c(-c3n[nH]c4ccc(-c5cncc(CNCc6ccccc6)c5)nc34)cc12 [Compound 80, N-Benzyl-1-(5-(3-(4-(2-fluorophenyl)-1H-pyrrolo[3,2-c]pyridin-2-yl)-1H-pyrazolo[4,3-b]pyridin-5-yl)pyridin-3-yl)methanamine] | 110% | – | –
3 | 6.39 | 6.27 | – | c1cncc(-c2ccc3[nH]nc(-c4cc5c(N6CCCCC6)nccc5[nH]4)c3n2)c1 [Compound 172, 3-(4-(Piperidin-1-yl)-1H-pyrrolo[3,2-c]pyridin-2-yl)-5-(pyridin-3-yl)-1H-pyrazolo[4,3-b]pyridine] | 29% | – | –
4 | 5.38 | 5.57 | – | CN(C)Cc1cncc(-c2ccc3[nH]nc(-c4cc5c(N6CCCCC6)nccc5[nH]4)c3n2)c1 [Compound 181, N,N-Dimethyl-1-(5-(3-(4-(piperidin-1l-yl)-1H-pyrrolo[3,2-c]pyridin-2-yl)-1H-pyrazolo[4,3-b]pyridin-5-yl)pyridin-3-yl)methanamine] | 23% | – | –
5 | < 5.00 | 5.35 | 30 nM | CCCCC(=O)Nc1cncc(-c2ccc3[nH]nc(-c4cc5c(N6CCCCC6)nccc5[nH]4)c3n2)c1 [Compound 187, N-(5-(3-(4-(Piperidin-1-yl)-1H-pyrrolo[3,2-c]pyridin-2-yl)-1H-pyrazolo[4,3-b]pyridin-5-yl)pyridin-3-yl)pentanamide] | 54% | 42.2% | –
6 | 5.44 | 5.72 | 30 nM | FC1(F)CCN(Cc2cncc(-c3ccc4[nH]nc(-c5cc6c(N7CCCCC7)nccc6[nH]5)c4n3)c2)C1 [Compound 194, 5-(5-((3,3-Difluoropyrrolidin-1-yl)methyl)pyridin-3-yl)-3-(4-(piperidin-1-yl)-1H-pyrrolo[3,2-c]pyridin-2-yl)-1H-pyrazolo[4,3-b]pyridine] | 123% | – | –
7 | 5.47 | 5.55 | 100 nM | c1ccc(-c2ccc3[nH]nc(-c4cc5c(N6CCCCC6)nccc5[nH]4)c3n2)nc1 [Compound 196, 3-(4-(Piperidin-1-yl)-1H-pyrrolo[3,2-c]pyridin-2-yl)-5-(pyridin-2-yl)-1H-pyrazolo[4,3-b]pyridine] | 102% | – | –
8 | 6.08 | 6.08 | 2700 nM | Cc1ccncc1-c1ccc2[nH]nc(-c3cc4c(N5CCN(C)CC5)nccc4[nH]3)c2n1 [Compound 229, 3-(4-(4-Methylpiperazin-1l-yl)-1H-pyrrolo[3,2-c]pyridin-2-yl)-5-(4-methylpyridin-3-yl)-1H-pyrazolo[4,3-b]pyridine] | 87% | – | –
9 | 5.37 | 5.73 | 10 nM | CN1CCN(c2nccc3[nH]c(-c4n[nH]c5ccc(-c6cncc(CN7CCCCC7)c6)nc45)cc23)CC1 [Compound 239, 3-(4-(4-methylpiperazin-1-yl)-1H-pyrrolo[3,2-c]pyridin-2-yl)-5-(5-(piperidin-1-ylmethyl)pyridin-3-yl)-1H-pyrazolo[4,3-b]pyridine] | 71% | – | –
10 | 5.51 | 5.95 | 100 nM | CN1CCN(c2nccc3[nH]c(-c4n[nH]c5ccc(-c6cncnc6)nc45)cc23)CC1 [Compound 251, 3-(4-(4-Methylpiperazin-1l-yl)-1H-pyrrolo[3,2-c]pyridin-2-yl)-5-(pyrimidin-5-yl)-1H-pyrazolo[4,3-b]pyridine] | 56% | – | –
11 | 6.60 | 6.79 | 900 nM | c1cncc(-c2ccc3[nH]nc(-c4cc5cnccc5[nH]4)c3n2)c1 [Compound 256, 5-(Pyridin-3-yl)-3-(1H-pyrrolo[3,2-c]pyridin-2-yl)-1H-pyrazolo[4,3-b]pyridine] | 119% | – | –
12 | 5.46 | 5.78 | 2700 nM | CCNCc1cncc(-c2ccc3[nH]nc(-c4cc5cnccc5[nH]4)c3n2)c1 [Compound 258, N-((5-(3-(1H-Pyrrolo[3,2-c]pyridin-2-yl)-1H-pyrazolo[4,3-b]pyridin-5-yl)pyridin-3-yl)methyl)ethanamine] | 99% | – | –
13 | 5.77 | 6.04 | 30 nM | CN(C)Cc1cncc(-c2ccc3[nH]nc(-c4cc5cnccc5[nH]4)c3n2)c1 [Compound 265, 1-(5-(3-(1H-Pyrrolo[3,2-c]pyridin-2-yl)-1H-pyrazolo[4,3-b]pyridin-5-yl)pyridin-3-yl)-N,N-dimethylmethanamine] | 119% | – | –
14 | 7.28 | 7.06 | 300 nM | FC1(F)CCN(Cc2cncc(-c3ccc4[nH]nc(-c5cc6cnccc6[nH]5)c4n3)c2)C1 [Compound 278, 5-(5-((3,3-Difluoropyrrolidin-1-yl)methyl)pyridin-3-yl)-3-(1H-pyrrolo[3,2-c]pyridin-2-yl)-1H-pyrazolo[4,3-b]pyridine] | 134% | – | –
15 | 5.63 | 5.83 | 2700 nM | c1cc2[nH]c(-c3n[nH]c4ccc(-c5cncnc5)nc34)cc2cn1 [Compound 279, 5-(Pyrimidin-5-yl)-3-(1H-pyrrolo[3,2-c]pyridin-2-yl)-1H-pyrazolo[4,3-b]pyridine] | 53% | – | –
16 | 6.20 | 6.04 | – | CC(C)CC(=O)Nc1cncc(-c2ccc3[nH]nc(-c4cc5c(-c6cc(F)cc(CNS(C)(=O)=O)c6)nccc5[nH]4)c3n2)c1 [Compound 478, N-(5-(3-(4-(3-Fluoro-5-(methylsulfonamidomethyl)phenyl)-1H-pyrrolo[3,2-c]pyridin-2-yl)-1H-pyrazolo[4,3-b]pyridin-5-yl)pyridin-3-yl)-3-methylbutanamide] | 33% | – | –
17 | 6.50 | 5.98 | 10 nM | Cc1ccncc1-c1ccc2[nH]nc(-c3cc4c(-c5cc(F)cc(CNS(C)(=O)=O)c5)nccc4[nH]3)c2n1 [Compound 481, N-(3-Fluoro-5-(2-(5-(4-methylpyridin-3-yl)-1H-pyrazolo[4,3-b]pyridin-3-yl)-1H-pyrrolo[3,2-c]pyridin-4-yl)benzyl)methanesulfonamide] | 98% | – | –
18 | < 5.00 | < 5.00 | 10 nM | CS(=O)(=O)NCc1cc(F)cc(-c2nccc3[nH]c(-c4n[nH]c5ccc(-c6cncc(NC(=O)Cc7ccccc7)c6)nc45)cc23)c1 [Compound 486, N-(5-(3-(4-(3-Fluoro-5-(methylsulfonamidomethyl)phenyl)-1H-pyrrolo[3,2-c]pyridin-2-yl)-1H-pyrazolo[4,3-b]pyridin-5-yl)pyridin-3-yl)-2-phenylacetamide] | 110% | 19.3% | 8.8%
19 | 5.88 | 5.70 | 900 nM | CS(=O)(=O)NCc1cc(F)cc(-c2nccc3[nH]c(-c4n[nH]c5ccc(-c6cncc(NC(=O)C7CCCC7)c6)nc45)cc23)c1 [Compound 498, N-(5-(3-(4-(3-Fluoro-5-(methylsulfonamidomethyl)phenyl)-1H-pyrrolo[3,2-c]pyridin-2-yl)-1H-pyrazolo[4,3-b]pyridin-5-yl)pyridin-3-yl)cyclopentanecarboxamide] | 50% | – | –
